≈ marks a conversion by molar mass, not a printed value.
Tests used:
C. albicans CaCi-2 = assay: Secondary assay 2: CaCi-2 in the absence of fluconazole; type: cell-based; conditions: Candida albicans, CACI2; no fluconazole, 48 h incubation; read-out: IC50 against C. albicans in the absence of fluconazole
Experimental: (§1) 5) Then, pin 100 nL of test compound from compound plates into assay plates using a CyBi-Well pin tool.
(§2) 6) Dispense 20 µL/well of culture into the assay media in all wells.
(§3) 7) Incubate the plates in a humidified (90% humidity) Liconic incubator at 37 °C without agitation for 48 hours.
(§4) 8) Dilute Alamar Blue 1:40 in Ca/Mg-free PBS.
(§5) 9) To all plates, add 5 µL/well of the diluted Alamar Blue to plates to a final dilution […]
10) Incubate the plates for 2 hours.
11) Read the relative fluorescence intensity (RFU) of wells on a standard plate reader as a measure of relative fungal growth. EnVision (Perkin Elmer) plate reader setup: Ex 544 nm, Em 590 nm, bandwidth 12 nm, top read.
Secondary assay 2: CaCi-2 in the absence of fluconazole
Clear, flat-bottom, black 384-well plates (Corning Catalog no. 3712BC; Lot no.
35808016); geldanamycin (AG Scientific Catalog no. G-1047) 15 mM stock solution in […]
(§6) 2) Read OD 600 of 1 mL of fungal culture in a cuvette using a standard optical density reader (Eppendorf BioPhotometer Plus), with growth medium as a […]
measured) × (desired final volume of inoculum) × 0.3 = volume of fungal culture […]
this yields a calculated starting OD of the fungal inoculum of 0.00015. […]
11) Read relative fluorescence intensity (RFU) of wells on a standard plate reader as […]
measure of relative fungal growth. EnVision (Perkin Elmer) plate reader settings: […]

[1] = tested on: Hsp90-dependent signaling pathway; assay: Yeast-reporter assay, Hsp90-dependent signaling pathway; type: cell-based; conditions: Saccharomyces cerevisiae
Solubility in PBS = type: physicochemical; conditions: aqueous buffer
[2] = Plasma stability, human plasma; type: in vitro ADME; conditions: 5 h incubation
C. albicans CaCi-8 = assay: Secondary assay 1: CaCi-8 with 8 µg/mL fluconazole (Alamar Blue growth); type: cell-based, Candida albicans; conditions: Candida albicans, CACI8, 48 h, read-out: CaCi-8 IC50
Experimental: All of the compounds prepared above were evaluated for their ability to chemosensitize the C. albicans test strains CaCi-2 and CaCi-8 towards fluconazole. […] The DMSO/fluconazole combination served as an internal control. […]
(1/OD measured) × (desired final volume of inoculum) × 0.3 = volume of fungal culture (µL) to add to desired volume of growth medium. When added to media in wells, this yields a calculated starting OD of the fungal inoculum of 0.00015. […]
3) Use a Thermo Combi nL to dispense 20 µL/well of assay media into all wells. […]
EnVision (Perkin Elmer) plate reader setup: Ex 544 nm, Em 590 nm, bandwidth 12 nm, top read.
Secondary assay 1: CaCi-8 with 8 µg/mL fluconazole […]
35808016); geldanamycin (AG Scientific Catalog no. […]
PBS w/o calcium and magnesium (Cellgro Catalog no. 21-040-CV)
Synthetic defined growth medium
RPMI 1640 medium, (powder without sodium bicarbonate; Invitrogen Catalog no. […]
no. 028K0760); glucose 40% (w/v) in water (Sigma Catalog no. G-5400); MOPS buffer […]
1) Prepare 1× RPMI medium by dissolving 10.4 g powdered medium in 800 mL […]
2) Add 34.52 g MOPS. While stirring, adjust pH to 7.0 with 10 N NaOH.
3) Add 10 mL uridine solution, 50 mL glucose solution, adjust final volume to 1000 […]
Test strain: C. albicans CaCi-8
1) Inoculate 500 µL of strain from cryopreserved stock into a 250 mL shaker flask containing 30 mL growth medium. Shake at 30 °C overnight (16 hours).
as §6
3) Dilute to a desired volume of fungal inoculum according to following formula: […]
1) Add fluconazole stock solution to fungal inoculum to achieve 8 µg/mL.
2) Add Pen/Strep to media to 1% concentration.
4) Dispense geldanamycin in positive control wells using Thermo Combi nL for a final concentration of 3 µM.
as §1, §2, §3, §4, §5
10) Incubate the plates for 2 hours. […]

[3] = Plasma stability, murine plasma; type: in vitro ADME; conditions: 5 h incubation

COC(=O)Cn1nc(-c2cccc(OC)c2)c2ccccc21 [Compound 36]
IC50 (C. albicans CaCi-2): > 26 µM
IC50 [1]: > 26 µM
solubility (Solubility in PBS): 55 µM (≈ 16.3 µg/mL)
remaining after incubation in plasma [2]: < 10%
IC50 (C. albicans CaCi-8): 1.5 ± 0.6 µM
remaining after incubation in plasma [3]: < 10%
